Source: patent publication US11000033B2, “Ketone or oxime compound, and herbicide” (NISSAN CHEMICAL CORPORATION, priority 2014, dated 2021)

How the values were obtained:
[1] = tested on: Abutilon theophrasti; assay: Test Example 4: herbicidal effect by soil treatment (symbol M); type: in vivo; details: application herbicide amount 320 g/ha
In short: (§1)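 Seeds were sown in sterilized diluvial soil, covered with about 1.5 cm of soil, and the soil surface was sprayed with a water-diluted emulsion of the compound at a predetermined rate. Plants grew in a greenhouse at 25° C. to 30° C.; effects were scored visually 3 weeks after application.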

[2] = tested on: Alopecurus myosuroides; assay: Test Example 4: herbicidal effect by soil treatment (symbol J); type: in vivo; details: application herbicide amount 320 g/ha
In short: as §1

[3] = tested on: Monochoria vaginalis; assay: Test Example 1: herbicidal activity, application before weed generation in submerged conditions (symbol C); type: in vivo; details: application herbicide amount 320 g/ha
In short: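 Scores run 0 to 5 by herbicidal ratio, with 5 meaning 90% or more and 0 meaning 5% or lower, read 3 weeks after treatment. Compound was applied as a diluted emulsion to the water surface of submerged alluvial-soil pots on the day weed seeds were sown.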

## CON=C(C)CC1CC(O)=C(c2c(C)cc(OCC(F)(F)F)cc2C)C1=O (stereo not shown) [6-049]
other
  melting point: 165 to 172 °C
[1]
  M: Abutilon theophrasti, herbicidal effect grade: 4 (Herbicidal ratio of 70% or higher and lower than 90%)
[2]
  J: Alopecurus myosuroides, herbicidal effect grade: 5 (Herbicidal ratio of 90% or more (almost completely withered))
[3]
  Herbicidal effect grade, C: Monochoria vaginalis: 4 (Herbicidal ratio of 70% or higher and lower than 90%)
